# From patent publication US11759462B2, “Spirocyclic compounds as tryptophan hydroxylase inhibitors” (priority 2013, dated 2023)
# Where two headings read alike, the source gives them in different places.
# Key:
# [1] = biological target: T1, Recombinant human TPH1 (MBP tagged) (Homo sapiens, UniProt P17752); test: TPH1 in vitro inhibition assay (kinetic fluorescence); type: biochemical
# T1 construct: cloning full length human TPH1 cDNA in to a bacterial pMAL-c5E expression vector; made in house; host or cells: E. coli BL21 (DE3)
# T1 sequence (P17752 1-444): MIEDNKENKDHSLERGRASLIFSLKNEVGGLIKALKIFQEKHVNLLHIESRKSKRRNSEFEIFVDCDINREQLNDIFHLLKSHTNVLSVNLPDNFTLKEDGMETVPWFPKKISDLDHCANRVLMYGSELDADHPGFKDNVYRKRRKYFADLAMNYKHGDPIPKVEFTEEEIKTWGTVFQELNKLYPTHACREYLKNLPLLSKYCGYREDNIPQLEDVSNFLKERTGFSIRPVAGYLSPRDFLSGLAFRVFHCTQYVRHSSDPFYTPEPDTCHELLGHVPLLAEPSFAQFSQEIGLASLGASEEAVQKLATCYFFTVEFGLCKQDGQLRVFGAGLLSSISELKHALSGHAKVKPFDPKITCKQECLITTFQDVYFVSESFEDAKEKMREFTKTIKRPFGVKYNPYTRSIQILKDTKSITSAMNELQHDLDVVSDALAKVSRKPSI
# In short: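 Final mix: 15 nM MBP-TPH1, 30 μM Trp, 36 μM 6-methyltetrahydropterin, 25 μM ferrous ammonium sulfate, 50 mM MES pH 7.1, 1% DMSO, room temperature.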
# [2] = test system: jejunal mucosal 5-HT in mice (C57 BL6); test: Intestinal 5-HT depletion assay (Example B, single 150 mg/kg oral dose); type: in vivo, mouse; details: one day after oral administration of a single 150 mg/kg dose, P-value class (ANOVA)
# In short: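 C57 BL6 mice received one 150 mg/kg oral gavage dose; jejunal mucosa was homogenized in acidic trichloroacetic acid buffer and 5-HT measured by HPLC. Levels normalized to BCA protein, expressed as mean percent reduction versus vehicle ± SEM; ANOVA significance.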
# [3] = test system: jejunal mucosal 5-HT in mice (C57 BL6); test: Reduction of mucosal 5-HT concentrations (Example C, repeated oral dosing); type: in vivo, mouse; details: after three oral doses (first 10 or 50 mg/kg, then two doses of 50 mg/kg) (title), P-value class
# Experimental: The efficacy of the TPH1 inhibitors of the invention was assessed for the ability to decrease intestinal serotonin concentration in mice. Mice (C57 BL6) were administered an oral dose of 10 or 50 mg/kg of the test article in the evening. […] Following an overnight fast, each animal was euthanized by exsanguination under isoflurane anesthesia. Jejunal intestinal mucosa was isolated and homogenized in […] of a buffer containing 0.3M trichloroacetic acid, 0.1M sodium acetate, 10 mM EDTA, 20 mM sodium bisulfate and 50 mM ascorbic acid. Following centrifugation the 5-HT levels in the supernatants were measured by HPLC. The remaining mucosal pellet was solubilized overnight at 37° C. in a 0.1% sodium dodecyl sulfate buffer in 0.1N NaOH followed by determination of protein concentrations using a BCA protein assay (Pierce, Rockford, Ill.). 5-HT levels were normalized to protein and data were expressed as mean percent reduction of mucosal 5-HT levels relative to vehicle control±SEM (percent 5-HT reduction). All animal studies were carried out with protocols approved by the Institutional Animal Care and Use Committee. P-values, indicating statistical significance of the data (ANOVA) are provided in the table: * refers to P<0.05,** refers to P<0.01, *** refers to P<0.005, and **** refers to P<0.0005.
# [4] = TPH1 Range (TPH1 inhibition IC50)
# [5] = read-out: TPH1 Range (TPH1 inhibition IC50)
molecule,measurement,setting,value
"Nc1nc(O[C@H](c2ccc(Cl)cc2-c2cccc(S(N)(=O)=O)c2)C(F)(F)F)cc(N2CCC3(CC2)CN[C@H](C(=O)O)C3)n1 [Example 34u, (S)-8-(2-amino-6-((R)-1-(5-chloro-3′-sulfamoyl-[1,1′-biphenyl]-2-yl)-2,2,2-trifluoroethoxy)pyrimidin-4-yl)-2,8-diazaspiro[4.5]decane-3-carboxylic acid]",IC50,[1]; [4],< 50 nM
same,Efficacy (statistical significance of reduction of mucosal 5-HT concentrations relative to vehicle),[2],* (* refers to P<0.05)
"Nc1nc(O[C@H](c2ccc(Cl)cc2-c2cccc(O)c2)C(F)(F)F)cc(N2CCC3(CC2)CN[C@H](C(=O)O)C3)n1 [Example 34v, (S)-8-(2-amino-6-((R)-1-(5-chloro-3′-hydroxy-[1,1′-biphenyl]-2-yl)-2,2,2-trifluoroethoxy)pyrimidin-4-yl)-2,8-diazaspiro[4.5]decane-3-carboxylic acid]",IC50,[1]; [5],< 50 nM
same,Efficacy (statistical significance of reduction of mucosal 5-HT concentrations relative to vehicle),[2],* (* refers to P<0.05)
"CS(=O)(=O)c1cccc(-c2cc(Cl)ccc2[C@@H](Oc2cc(N3CCC4(CC3)CN[C@H](C(=O)O)C4)nc(N)n2)C(F)(F)F)c1 [Example 34w, (S)-8-(2-amino-6-((R)-1-(5-chloro-3′-(methylsulfonyl)-[1,1′-biphenyl]-2-yl)-2,2,2-trifluoroethoxy)pyrimidin-4-yl)-2,8-diazaspiro[4.5]decane-3-carboxylic acid]",IC50,[1]; [4],< 50 nM
same,Efficacy (statistical significance of reduction of mucosal 5-HT concentrations relative to vehicle),[2],*** (*** refers to P<0.005)
"COc1cccc(-c2ccc(C(Oc3cc(N4CCC5(CC4)CN[C@H](C(=O)O)C5)nc(N)n3)C(F)(F)F)cc2)c1 (stereo partly drawn) [Example 55al, (3S)-8-(2-amino-6-(2,2,2-trifluoro-1-(3′-methoxy-[1,1′-biphenyl]-4-yl)ethoxy)pyrimidin-4-yl)-2,8-diazaspiro[4.5]decane-3-carboxylic acid]",IC50,[1]; [5],50 to 300 nM
same,Efficacy (statistical significance of reduction of mucosal 5-HT concentrations relative to vehicle),[2],* (* refers to P<0.05)
"Nc1nc(O[C@H](c2ccc(-c3cccc(F)c3)cc2)C(F)(F)F)cc(N2CCC3(CC2)CN[C@H](C(=O)O)C3)n1 [Example 55am, (S)-8-(2-amino-6-((R)-2,2,2-trifluoro-1-(3′-fluoro-[1,1′-biphenyl]-4-yl)ethoxy)pyrimidin-4-yl)-2,8-diazaspiro[4.5]decane-3-carboxylic acid]",IC50,[1]; [5],50 to 300 nM
same,Efficacy (statistical significance of reduction of mucosal 5-HT concentrations relative to vehicle),[2],*** (*** refers to P<0.005)
"COc1cccc(-c2ccc([C@@H](Oc3cc(N4CCC5(CC4)CN[C@H](C(=O)O)C5)nc(N)n3)C(F)(F)F)cc2)c1 [Example 55an, (S)-8-(2-amino-6-((R)-2,2,2-trifluoro-1-(3′-methoxy-[1,1′-biphenyl]-4-yl)ethoxy)pyrimidin-4-yl)-2,8-diazaspiro[4.5]decane-3-carboxylic acid]",IC50,[1]; [5],50 to 300 nM
same,Efficacy (statistical significance of reduction of mucosal 5-HT concentrations relative to vehicle),[2],*** (*** refers to P<0.005)
"Cc1n[nH]c2cc(-c3ccc([C@@H](Oc4cc(N5CCC6(CC5)CN[C@H](C(=O)O)C6)nc(N)n4)C(F)(F)F)cc3)ccc12 [Example 55az, (S)-8-(2-amino-6-((R)-2,2,2-trifluoro-1-(4-(3-methyl-1H-indazol-6-yl)phenyl)ethoxy)pyrimidin-4-yl)-2,8-diazaspiro[4.5]decane-3-carboxylic acid]",IC50,[1]; [5],< 50 nM
same,Efficacy (statistical significance of reduction of mucosal 5-HT concentrations relative to vehicle),[2],*** (*** refers to P<0.005)
"Nc1nc(O[C@H](c2ccc(-c3ccc4c(c3)CCNC4=O)cc2)C(F)(F)F)cc(N2CCC3(CC2)CN[C@H](C(=O)O)C3)n1 [Example 55bc, (S)-8-(2-amino-6-((R)-2,2,2-trifluoro-1-(4-(1-oxo-1,2,3,4-tetrahydroisoquinolin-6-yl)phenyl)ethoxy)pyrimidin-4-yl)-2,8-diazaspiro[4.5]decane-3-carboxylic acid]",IC50,[1]; [5],< 50 nM
same,Efficacy (statistical significance of reduction of mucosal 5-HT concentrations relative to vehicle),[2],** (** refers to P<0.01)
"Nc1nc(O[C@H](c2ccc(-c3ccc4cnccc4c3)cc2)C(F)(F)F)cc(N2CCC3(CC2)CN[C@H](C(=O)O)C3)n1 [Example 55bd, (S)-8-(2-amino-6-((R)-2,2,2-trifluoro-1-(4-(isoquinolin-6-yl)phenyl)ethoxy)pyrimidin-4-yl)-2,8-diazaspiro[4.5]decane-3-carboxylic acid]",IC50,[1]; [4],< 50 nM
same,Efficacy (statistical significance of reduction of mucosal 5-HT concentrations relative to vehicle),[2],*** (*** refers to P<0.005)
"Nc1nc(O[C@H](c2ccc(-c3ccc4ncsc4c3)cc2)C(F)(F)F)cc(N2CCC3(CC2)CN[C@H](C(=O)O)C3)n1 [Example 55k, (S)-8-(2-amino-6-((R)-1-(4-(benzo[d]thiazol-6-yl)phenyl)-2,2,2-trifluoroethoxy)pyrimidin-4-yl)-2,8-diazaspiro[4.5]decane-3-carboxylic acid]",IC50,[1]; [5],50 to 300 nM
same,Efficacy (statistical significance of reduction of mucosal 5-HT concentrations relative to vehicle),[2],* (* refers to P<0.05)
"CCOC(=O)[C@@H]1CC2(CCN(c3cc(O[C@H](c4cc(Cl)ccc4-c4cccc(S(C)(=O)=O)c4)C(F)(F)F)nc(N)n3)CC2)CN1 [Example 63ae, (S)-ethyl 8-(2-amino-6-((R)-1-(4-chloro-3′-(methylsulfonyl)-[1,1′-biphenyl]-2-yl)-2,2,2-trifluoroethoxy)pyrimidin-4-yl)-2,8-diazaspiro[4.5]decane-3-carboxylate]",Efficacy (statistical significance of reduction of mucosal 5-HT concentrations relative to vehicle),[3],*** (*** refers to P<0.005)
"CCOC(=O)[C@@H]1CC2(CCN(c3cc(O[C@H](c4ccc(Cl)cc4-c4cccc(C)c4)C(F)(F)F)nc(N)n3)CC2)CN1 [Example 63aq, (S)-ethyl 8-(2-amino-6-((R)-1-(5-chloro-3′-methyl-[1,1′-biphenyl]-2-yl)-2,2,2-trifluoroethoxy)pyrimidin-4-yl)-2,8-diazaspiro[4.5]decane-3-carboxylate]",Efficacy (statistical significance of reduction of mucosal 5-HT concentrations relative to vehicle),[3],*** (*** refers to P<0.005)
"CCOC(=O)[C@@H]1CC2(CCN(c3cc(O[C@H](c4ccc(Cl)cc4-c4cccc(C(F)(F)F)c4)C(F)(F)F)nc(N)n3)CC2)CN1 [Example 63ar, (S)-ethyl 8-(2-amino-6-((R)-1-(5-chloro-3′-(trifluoromethyl)-[1,1′-biphenyl]-2-yl)-2,2,2-trifluoroethoxy)pyrimidin-4-yl)-2,8-diazaspiro[4.5]decane-3-carboxylate]",Efficacy (statistical significance of reduction of mucosal 5-HT concentrations relative to vehicle),[3],**** (**** refers to P<0.0005)
"CCOC(=O)[C@@H]1CC2(CCN(c3cc(O[C@H](c4ccc(-c5ccc(Cl)c(Cl)c5)cc4-n4ccc(C)n4)C(F)(F)F)nc(N)n3)CC2)CN1 [Example 63aw, (S)-ethyl 8-(2-amino-6-((R)-1-(3′,4′-dichloro-3-(3-methyl-1H-pyrazol-1-yl)-[1,1′-biphenyl]-4-yl)-2,2,2-trifluoroethoxy)pyrimidin-4-yl)-2,8-diazaspiro[4.5]decane-3-carboxylate]",Efficacy (statistical significance of reduction of mucosal 5-HT concentrations relative to vehicle),[3],**** (**** refers to P<0.0005)
"(3S)-8-(2-amino-6-(2,2,2-trifluoro-1-(3′-fluoro- [1,1′-biphenyl]-4-yl)ethoxy)pyrimidin-4-yl)-2,8- diazaspiro[4.5]decane-3-carboxylic acid [Example 55ak]",IC50,[1]; [5],300 to 3000 nM
same,Efficacy (statistical significance of reduction of mucosal 5-HT concentrations relative to vehicle),[2],** (** refers to P<0.01)
